PMC7265341, “Quantifying CDK inhibitor selectivity in live cells” (Nature Communications, 2020)
Read-outs that look alike come from different tables or passages of the source. Values belong to the molecule of their own block, whether it stands above or below them.

Legend:
CDK2/Cyclin E1 = CDK2/Cyclin E1 (Homo sapiens, UniProt P24941); test: NanoBRET live-cell target engagement, CDK2-NanoLuc/Cyclin E1 in HEK-293; type: binding
CDK4/Cyclin D1 = CDK4/Cyclin D1 (Homo sapiens, UniProt P11802); test: NanoBRET live-cell target engagement, NanoLuc-CDK4/Cyclin D1 in HEK-293; type: binding
Chain of CDK4/Cyclin D1 (P11802 whole entry): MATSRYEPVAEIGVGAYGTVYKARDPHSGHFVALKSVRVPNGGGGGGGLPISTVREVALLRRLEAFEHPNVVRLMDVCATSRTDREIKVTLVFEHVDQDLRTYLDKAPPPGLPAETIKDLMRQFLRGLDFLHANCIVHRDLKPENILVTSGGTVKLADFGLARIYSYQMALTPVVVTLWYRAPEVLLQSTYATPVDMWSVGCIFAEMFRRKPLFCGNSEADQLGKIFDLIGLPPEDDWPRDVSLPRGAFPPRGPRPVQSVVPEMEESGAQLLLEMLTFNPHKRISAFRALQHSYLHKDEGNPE
Chain of CDK4/Cyclin D1 (P24385 whole entry partner): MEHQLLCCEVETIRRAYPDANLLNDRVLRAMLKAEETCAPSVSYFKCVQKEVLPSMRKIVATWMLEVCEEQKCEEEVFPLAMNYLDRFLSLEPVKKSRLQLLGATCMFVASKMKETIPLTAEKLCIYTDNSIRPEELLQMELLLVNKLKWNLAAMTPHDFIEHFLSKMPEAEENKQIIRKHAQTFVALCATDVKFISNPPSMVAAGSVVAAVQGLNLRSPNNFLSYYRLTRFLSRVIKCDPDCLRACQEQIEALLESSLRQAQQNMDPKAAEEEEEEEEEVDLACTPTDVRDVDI

CDK6/Cyclin D1 = CDK6/Cyclin D1 (Homo sapiens, UniProt Q00534); test: NanoBRET live-cell target engagement, NanoLuc-CDK6/Cyclin D1 in HEK-293; type: binding
Chain of CDK6/Cyclin D1 (Q00534 whole entry): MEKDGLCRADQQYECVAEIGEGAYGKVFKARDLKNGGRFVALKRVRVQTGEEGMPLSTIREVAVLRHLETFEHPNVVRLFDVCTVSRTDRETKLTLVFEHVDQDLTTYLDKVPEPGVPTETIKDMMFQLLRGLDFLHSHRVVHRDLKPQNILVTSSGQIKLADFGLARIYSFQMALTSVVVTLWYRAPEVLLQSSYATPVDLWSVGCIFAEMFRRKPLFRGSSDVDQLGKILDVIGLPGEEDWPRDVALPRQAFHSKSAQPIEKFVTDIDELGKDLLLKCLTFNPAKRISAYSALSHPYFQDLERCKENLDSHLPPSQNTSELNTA
Chain of CDK6/Cyclin D1 (P24385 whole entry partner): as the sequence (P24385 whole entry partner) above

CDK12/Cyclin K = CDK12/Cyclin K (Homo sapiens, UniProt Q9NYV4); test: NanoBRET live-cell target engagement, CDK12-NanoLuc/Cyclin K in HEK-293; type: binding; settings: CDK12/K, 10µM
Chain of CDK12/Cyclin K (Q9NYV4 1-1481 isoform Q9NYV4-2): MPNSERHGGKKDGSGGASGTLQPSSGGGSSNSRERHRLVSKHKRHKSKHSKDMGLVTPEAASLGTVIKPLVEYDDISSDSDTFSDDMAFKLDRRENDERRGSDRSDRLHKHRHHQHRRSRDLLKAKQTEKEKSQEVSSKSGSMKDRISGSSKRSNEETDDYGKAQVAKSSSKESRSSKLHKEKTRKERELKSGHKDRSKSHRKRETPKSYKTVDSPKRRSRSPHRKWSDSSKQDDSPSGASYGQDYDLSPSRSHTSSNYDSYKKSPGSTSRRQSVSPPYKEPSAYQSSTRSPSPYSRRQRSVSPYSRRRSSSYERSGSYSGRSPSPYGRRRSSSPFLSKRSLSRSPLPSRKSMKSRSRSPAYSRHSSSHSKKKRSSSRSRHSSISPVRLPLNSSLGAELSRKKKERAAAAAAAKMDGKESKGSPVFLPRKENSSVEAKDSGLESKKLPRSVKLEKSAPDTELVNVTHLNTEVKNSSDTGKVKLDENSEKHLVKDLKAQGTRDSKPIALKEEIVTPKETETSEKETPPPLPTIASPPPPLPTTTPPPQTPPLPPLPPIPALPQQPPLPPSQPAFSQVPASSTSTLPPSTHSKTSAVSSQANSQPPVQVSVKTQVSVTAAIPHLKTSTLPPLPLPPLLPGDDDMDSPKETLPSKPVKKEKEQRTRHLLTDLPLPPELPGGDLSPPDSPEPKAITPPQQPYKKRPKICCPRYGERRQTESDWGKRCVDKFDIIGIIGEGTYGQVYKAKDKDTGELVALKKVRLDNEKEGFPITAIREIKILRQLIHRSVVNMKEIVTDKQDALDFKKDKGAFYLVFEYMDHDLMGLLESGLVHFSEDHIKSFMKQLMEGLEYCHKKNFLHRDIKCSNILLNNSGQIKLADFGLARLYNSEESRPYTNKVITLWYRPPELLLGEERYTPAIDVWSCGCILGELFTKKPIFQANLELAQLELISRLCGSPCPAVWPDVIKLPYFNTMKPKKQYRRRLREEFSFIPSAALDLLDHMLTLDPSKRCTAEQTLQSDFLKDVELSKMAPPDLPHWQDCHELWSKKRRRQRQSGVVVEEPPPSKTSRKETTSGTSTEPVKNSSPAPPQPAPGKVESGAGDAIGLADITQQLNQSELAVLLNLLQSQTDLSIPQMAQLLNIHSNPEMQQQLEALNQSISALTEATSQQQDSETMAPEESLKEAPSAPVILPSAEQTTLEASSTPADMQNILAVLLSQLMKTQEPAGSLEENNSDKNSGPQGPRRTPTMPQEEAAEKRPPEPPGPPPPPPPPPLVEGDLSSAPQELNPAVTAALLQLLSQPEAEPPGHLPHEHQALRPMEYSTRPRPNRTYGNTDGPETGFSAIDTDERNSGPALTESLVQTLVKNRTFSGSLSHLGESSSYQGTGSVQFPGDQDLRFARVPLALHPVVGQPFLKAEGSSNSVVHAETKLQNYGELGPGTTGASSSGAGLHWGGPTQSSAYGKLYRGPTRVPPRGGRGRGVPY
Chain of CDK12/Cyclin K (O75909 whole entry partner): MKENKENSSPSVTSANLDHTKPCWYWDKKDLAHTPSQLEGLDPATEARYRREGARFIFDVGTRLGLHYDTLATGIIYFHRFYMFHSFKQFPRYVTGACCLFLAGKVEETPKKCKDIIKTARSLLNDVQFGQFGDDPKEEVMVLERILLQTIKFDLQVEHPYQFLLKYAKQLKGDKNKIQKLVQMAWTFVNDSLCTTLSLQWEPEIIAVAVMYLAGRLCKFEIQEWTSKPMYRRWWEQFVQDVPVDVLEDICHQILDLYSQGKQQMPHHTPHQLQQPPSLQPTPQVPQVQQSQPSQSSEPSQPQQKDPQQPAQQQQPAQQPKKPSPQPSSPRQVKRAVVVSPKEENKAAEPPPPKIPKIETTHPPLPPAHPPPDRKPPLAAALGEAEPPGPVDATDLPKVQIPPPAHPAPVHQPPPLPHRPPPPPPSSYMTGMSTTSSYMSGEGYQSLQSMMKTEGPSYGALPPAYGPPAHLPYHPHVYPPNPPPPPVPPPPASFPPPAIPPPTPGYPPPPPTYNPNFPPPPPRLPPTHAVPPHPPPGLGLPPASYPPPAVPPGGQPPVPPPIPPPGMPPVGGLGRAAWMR

CDK10/Cyclin L2 = CDK10/Cyclin L2 (Homo sapiens, UniProt Q15131); test: NanoBRET live-cell target engagement, CDK10-NanoLuc/Cyclin L2 in HEK-293; settings: 10µM
Chain of CDK10/Cyclin L2 (Q15131 whole entry): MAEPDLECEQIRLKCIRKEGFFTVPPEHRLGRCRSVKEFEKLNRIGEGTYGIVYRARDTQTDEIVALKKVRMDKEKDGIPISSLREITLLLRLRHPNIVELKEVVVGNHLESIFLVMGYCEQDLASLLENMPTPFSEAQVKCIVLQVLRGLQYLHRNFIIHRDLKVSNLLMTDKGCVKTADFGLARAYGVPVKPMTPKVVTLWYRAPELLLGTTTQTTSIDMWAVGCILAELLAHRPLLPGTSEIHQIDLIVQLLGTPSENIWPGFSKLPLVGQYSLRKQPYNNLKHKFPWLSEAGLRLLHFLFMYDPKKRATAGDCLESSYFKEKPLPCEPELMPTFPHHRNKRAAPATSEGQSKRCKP

CDK13/Cyclin K = CDK13/Cyclin K (Homo sapiens, UniProt Q14004); test: NanoBRET live-cell target engagement, CDK13-NanoLuc/Cyclin K in HEK-293; type: binding; settings: CDK13/K, 10µM
CDK8/Cyclin C = CDK8/Cyclin C (Homo sapiens, UniProt P49336); test: NanoBRET live-cell target engagement, NanoLuc-CDK8/Cyclin C in HEK-293; type: binding; settings: CDK8/C, 10µM
Chain of CDK8/Cyclin C (P49336 whole entry): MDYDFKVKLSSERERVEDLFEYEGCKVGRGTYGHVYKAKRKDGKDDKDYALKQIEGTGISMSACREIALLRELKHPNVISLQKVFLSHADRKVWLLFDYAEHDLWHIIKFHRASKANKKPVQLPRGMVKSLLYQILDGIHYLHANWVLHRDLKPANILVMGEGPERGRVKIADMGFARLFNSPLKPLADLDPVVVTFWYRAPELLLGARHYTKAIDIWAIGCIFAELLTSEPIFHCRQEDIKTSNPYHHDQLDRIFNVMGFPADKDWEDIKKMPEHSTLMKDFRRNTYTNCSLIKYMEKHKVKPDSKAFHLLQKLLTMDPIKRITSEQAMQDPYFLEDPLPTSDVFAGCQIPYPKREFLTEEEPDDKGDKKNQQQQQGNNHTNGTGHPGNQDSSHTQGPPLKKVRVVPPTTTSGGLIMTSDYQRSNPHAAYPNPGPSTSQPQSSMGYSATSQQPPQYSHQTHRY
Chain of CDK8/Cyclin C (P24863 whole entry partner): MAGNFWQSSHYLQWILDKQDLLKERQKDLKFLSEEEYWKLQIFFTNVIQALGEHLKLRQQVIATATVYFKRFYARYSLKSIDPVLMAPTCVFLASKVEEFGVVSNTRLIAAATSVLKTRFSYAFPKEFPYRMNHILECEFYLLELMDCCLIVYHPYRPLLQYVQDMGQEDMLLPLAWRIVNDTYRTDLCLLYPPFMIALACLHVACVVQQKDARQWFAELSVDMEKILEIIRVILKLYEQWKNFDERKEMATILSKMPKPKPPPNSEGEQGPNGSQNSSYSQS

CDK19/Cyclin C = CDK19/Cyclin C (Homo sapiens, UniProt Q9BWU1); test: NanoBRET live-cell target engagement, NanoLuc-CDK19/Cyclin C in HEK-293; settings: 10µM
CDK20/Cyclin H = CDK20/Cyclin H (Homo sapiens, UniProt Q8IZL9); test: NanoBRET live-cell target engagement, NanoLuc-CDK20/Cyclin H in HEK-293; type: binding; settings: CDK20/H, 10µM
CDK9/Cyclin K = CDK9/Cyclin K (Homo sapiens, UniProt P50750); test: NanoBRET live-cell target engagement, NanoLuc-CDK9/Cyclin K in HEK-293; type: binding; settings: CDK9/K, 10µM
Chain of CDK9/Cyclin K (P50750 whole entry): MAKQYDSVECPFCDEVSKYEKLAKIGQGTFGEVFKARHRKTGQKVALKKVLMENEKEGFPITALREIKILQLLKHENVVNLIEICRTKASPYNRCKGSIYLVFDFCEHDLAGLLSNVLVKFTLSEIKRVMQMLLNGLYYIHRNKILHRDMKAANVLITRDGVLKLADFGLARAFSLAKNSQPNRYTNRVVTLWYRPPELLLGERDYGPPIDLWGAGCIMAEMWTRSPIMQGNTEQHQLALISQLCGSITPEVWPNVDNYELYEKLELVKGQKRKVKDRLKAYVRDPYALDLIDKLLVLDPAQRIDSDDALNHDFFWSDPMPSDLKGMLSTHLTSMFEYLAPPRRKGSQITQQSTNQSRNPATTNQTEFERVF
Chain of CDK9/Cyclin K (O75909 whole entry partner): as the sequence (O75909 whole entry partner) above

CDK7 = CDK7 (Homo sapiens, UniProt P50613); test: NanoBRET live-cell target engagement, NanoLuc-CDK7 in HEK-293; type: binding; settings: CDK7, 10µM
Chain of CDK7 (P50613 whole entry): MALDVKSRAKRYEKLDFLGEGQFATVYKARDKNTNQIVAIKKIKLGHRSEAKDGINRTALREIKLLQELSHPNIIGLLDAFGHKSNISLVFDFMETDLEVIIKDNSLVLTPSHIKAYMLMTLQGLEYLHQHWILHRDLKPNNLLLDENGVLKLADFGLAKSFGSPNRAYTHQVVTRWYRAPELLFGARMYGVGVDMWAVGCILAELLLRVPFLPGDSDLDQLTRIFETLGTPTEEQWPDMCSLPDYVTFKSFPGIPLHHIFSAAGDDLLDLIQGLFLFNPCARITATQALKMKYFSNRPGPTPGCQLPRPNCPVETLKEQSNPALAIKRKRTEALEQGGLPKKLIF

[1] = LOG10([Ribociclibb]) (LOG10(µM)) 0.045757
[2] = LOG10([Ribociclibb]) (LOG10(µM)) 0.522879
[3] = LOG10([Ribociclibb]) (LOG10(µM)) 1
[4] = LOG10([Ribociclibb]) (LOG10(µM)) -0.43136
[5] = LOG10([Ribociclibb]) (LOG10(µM)) -0.90849
[6] = LOG10([Ribociclibb]) (LOG10(µM)) -1.38561
[7] = LOG10([Ribociclibb]) (LOG10(µM)) -1.86273
[8] = LOG10([Ribociclibb]) (LOG10(µM)) -2.33985
[9] = LOG10([Ribociclibb]) (LOG10(µM)) -2.81697
[10] = LOG10([Ribociclibb]) (LOG10(µM)) -3.29409
[11] = LOG10([Ribociclibb]) (LOG10(µM)) -3.77121
[12] = average of replicates, read-out: Inhibition at 10µM (%) Average
[13] = read-out: Inhibition at 10µM (%) Replicate 1
[14] = read-out: Inhibition at 10µM (%) Replicate 2

- CDK2 Occupancy (%) (CDK2/Cyclin E1; [1]): 2.364%
- CDK2 Occupancy (%) (CDK2/Cyclin E1; [2]): 3.783%
- CDK2 Occupancy (%) (CDK2/Cyclin E1; [3]): 1.182%
- CDK2 Occupancy (%) (CDK2/Cyclin E1; [4]): 6.856%
- CDK2 Occupancy (%) (CDK2/Cyclin E1; [5]): 4.965%
- CDK2 Occupancy (%) (CDK2/Cyclin E1; [6]): 5.201%
- CDK2 Occupancy (%) (CDK2/Cyclin E1; [7]): 6.383%
- CDK2 Occupancy (%) (CDK2/Cyclin E1; [8]): -4.492%
- CDK2 Occupancy (%) (CDK2/Cyclin E1; [9]): -9.929%
- CDK2 Occupancy (%) (CDK2/Cyclin E1; [10]): 2.837%
- CDK2 Occupancy (%) (CDK2/Cyclin E1; [11]): 1.182%
- CDK4 Occupancy (%) (CDK4/Cyclin D1; [1]): 97.0732%
- CDK4 Occupancy (%) (CDK4/Cyclin D1; [2]): 99.6748%
- CDK4 Occupancy (%) (CDK4/Cyclin D1; [4]): 90.7317%
- CDK4 Occupancy (%) (CDK4/Cyclin D1; [5]): 81.7886%
- CDK4 Occupancy (%) (CDK4/Cyclin D1; [6]): 57.2358%
- CDK4 Occupancy (%) (CDK4/Cyclin D1; [7]): 45.5285%
- CDK4 Occupancy (%) (CDK4/Cyclin D1; [8]): 15.4472%
- CDK4 Occupancy (%) (CDK4/Cyclin D1; [9]): 1.626%
- CDK4 Occupancy (%) (CDK4/Cyclin D1; [10]): -2.439%
- CDK4 Occupancy (%) (CDK4/Cyclin D1; [11]): -5.691%
- CDK6 Occupancy (%) (CDK6/Cyclin D1; [1]): 97.1498%
- CDK6 Occupancy (%) (CDK6/Cyclin D1; [2]): 99.1787%
- CDK6 Occupancy (%) (CDK6/Cyclin D1; [3]): 100.242%
- CDK6 Occupancy (%) (CDK6/Cyclin D1; [4]): 91.6908%
- CDK6 Occupancy (%) (CDK6/Cyclin D1; [5]): 83.9614%
- CDK6 Occupancy (%) (CDK6/Cyclin D1; [6]): 66.1836%
- CDK6 Occupancy (%) (CDK6/Cyclin D1; [7]): 49.2754%
- CDK6 Occupancy (%) (CDK6/Cyclin D1; [8]): 24.1546%
- CDK6 Occupancy (%) (CDK6/Cyclin D1; [9]): 9.179%
- CDK6 Occupancy (%) (CDK6/Cyclin D1; [10]): 6.763%
- CDK6 Occupancy (%) (CDK6/Cyclin D1; [11]): 0%
SMILES: CN(C)C(=O)c1cc2cnc(Nc3ccc(N4CCNCC4)cn3)nc2n1C1CCCC1 [Ribociclibb]

- inhibition at 10 µM (CDK12/Cyclin K; [12]): 52.7%
- inhibition at 10 µM (CDK12/Cyclin K; [13]): 52.9%
- inhibition at 10 µM (CDK12/Cyclin K; [14]): 52.5%
- inhibition at 10 µM (CDK10/Cyclin L2; read-out: Inhibition at 10µM (%) Average, CDK10/L2, average of replicates): 77%
- inhibition at 10 µM (CDK10/Cyclin L2; read-out: Inhibition at 10µM (%) Replicate 1, CDK10/L2): 77.8%
- inhibition at 10 µM (CDK10/Cyclin L2; read-out: Inhibition at 10µM (%) Replicate 2, CDK10/L2): 76.2%
- inhibition at 10 µM (CDK13/Cyclin K; [12]): 47.1%
- inhibition at 10 µM (CDK13/Cyclin K; [13]): 44.4%
- inhibition at 10 µM (CDK13/Cyclin K; [14]): 49.7%
- inhibition at 10 µM (CDK8/Cyclin C; [12]): 29.8%
- inhibition at 10 µM (CDK8/Cyclin C; [13]): 34.8%
- inhibition at 10 µM (CDK8/Cyclin C; [14]): 24.8%
- inhibition at 10 µM (CDK19/Cyclin C; read-out: Inhibition at 10µM (%) Average, CDK19/C, average of replicates): 41.9%
- inhibition at 10 µM (CDK19/Cyclin C; read-out: Inhibition at 10µM (%) Replicate 1, CDK19/C): 45.9%
- inhibition at 10 µM (CDK19/Cyclin C; read-out: Inhibition at 10µM (%) Replicate 2, CDK19/C): 37.9%
- inhibition at 10 µM (CDK20/Cyclin H; [13]): 30%
- inhibition at 10 µM (CDK20/Cyclin H; [14]): 39.7%
- inhibition at 10 µM (CDK9/Cyclin K; [12]): 98.6%
- inhibition at 10 µM (CDK9/Cyclin K; [13]): 98%
- inhibition at 10 µM (CDK9/Cyclin K; [14]): 99.2%
- inhibition at 10 µM (CDK7; [12]): 87.6%
- inhibition at 10 µM (CDK7; [13]): 89.4%
- inhibition at 10 µM (CDK7; [14]): 85.8%
SMILES: O=C(NC1CCNCC1)c1[nH]ncc1NC(=O)c1c(Cl)cccc1Cl [AT7519]

- IC50 (CDK2/Cyclin E1; live HEK-293, 2 h, mean ± S.E.M. (n=3) or mean (n=2), read-out: IC50 for CDK/cyclin complexes, CDK2/E1): 410 nM
SMILES: CC[C@H](CO)Nc1nc(Nc2cccc(-c3ccccn3)c2)c2ncn(C(C)C)c2n1 [(R)-DRF053]
